Assay results taken from patent US20050113296A1, “Methods for identifying antimicrobial agents, the agents identified therewith and methods of using same” (priority 2001, published 2005).

Target: T1, E. coli yfhC polypeptide (Escherichia coli, UniProt P68398)
T1 construct: made in house; negative controls used a pBAD-derived vector
Test: yfhC polypeptide deamination of a defined substrate, inosine monitored by HPLC of the digest
Assay type: biochemical
Details: 2 μg yfhC polypeptide (cell lysate), 20 μg stem loop or 8 μg tRNA^Arg2, 50 μl, 30 min
Description: The experimental protocol consisted of two steps. First an in vitro reaction was conducted using a defined yfhC substrate and the yfhC polypeptide supplied as a lysate from an over-producing strain of bacteria. The reactions were then digested enzymatically to mononucleotides with a mixture of three enzymes (nuclease P1, snake venom phosphodiesterase and alkaline phosphatase and the resultant digest analyzed by HPLC to monitor for the appearance of inosine (the product of the yfhC polypeptide deamination reaction).
In this experiment, a series of reactions were run with a synthetic RNA corresponding to the following anticodon stem loop 17-mer of E. coli tRNA^Arg2, in both the linear and folded form (the anticodon is underlined):
All reactions were carried out with the indicated amounts of yfhC substrate and yfhC polypeptide (in the form of a cell lysate) in a final volume of 50 μl. For experiments employing refolded yfhC substrate, the substrate was first boiled and slowly cooled in refolding buffer (30 mM HEPES, pH 7.9, 150 mM NaCl, 10 mM Mg Cl2) prior to adding to the reaction mixture. […] The pellets were resuspended in 50 μl H2O, digested with a mixture of nuclease P1, snake venom phosphodiesterase 1 and alkaline phosphatase (all enzymes in excess) and analyzed by HPLC (Develosil C-30 column, 2 mm×250 mm; Nomura Chemical, Japan). […]

T1 sequence (P68398 whole entry): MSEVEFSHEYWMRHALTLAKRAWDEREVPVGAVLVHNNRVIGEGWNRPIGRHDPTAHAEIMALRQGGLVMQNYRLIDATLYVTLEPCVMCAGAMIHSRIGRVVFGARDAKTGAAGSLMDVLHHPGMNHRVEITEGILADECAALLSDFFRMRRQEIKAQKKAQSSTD

How did the “activity as yfhC substrate (inosine peak in HPLC elution profile)” value turn out when “stem loop: synthetic RNA 17-mer corresponding to the anticodon stem loop of E. coli tRNA^Arg2, linear and refolded; yfhC substrate (CNCGGCNACGAACCGAG; RNA, backbone, methylation of C and the base at N not given here; n positions are unspecified nucleotides, further chemistry not fully specified)” was run?
The value was “greatest-activity”.
